Reference: patent publication US20210176992A1, “FU[…] COMBINATION OF A CL[…] AND AN AZOLE” (Bayer Aktiengesellschaft, priority 2018, published 2021)
Several values for one entry are separate records, joined by “and”; a condition that tells them apart may be missing. Equal entries are not always repeated.

Legend:
Fusarium = assay: Field trial winter wheat 2017, visual assessment of Fusarium control; type: in vivo; conditions: Laacherhof 2017, application at growth stage 63-65, evaluation Jun. 20, 2017, J1446 500 g/ha, prothioconazole 125 g a.i./ha, control 38% infestation
Procedure: (§1) Impact of Different Compounds on Fusarium Infestation and the DON Content; Field Trial Winter Wheat 2017 at the Laacherhof, Germany
(§2) Application was done on Jun. 1, 2017 at growth stage 63-65. Evaluation was done Jun. 20, 2017. Quantification of deoxynivalenol was performed by LC-MS/MS analysis using a Waters UPLC coupled to a Sciex API4000 mass spectrometer. The column used was a Waters Acquity HSS T3 (2.1×50 mm, 1.8 μm) and solvents were 2 mM ammonium acetate/1% acedic acid and methanol/2 mM ammonium acetate/1% acetic acid used in a 4 min gradient. The mass spectrometer was operated in negative ionization mode (MRM transitions: deoxynivalenol 355>265, 3-acetyl-deoxynivalenol 387>307, respectively). Quantification was performed by external calibration using reference compounds.
(§3) On the other hand, whereas infestation was lower upon application of C. rosea J1446 alone (45 vs. 63%), DON reduction after application of the combination of prothioconazole and C. rosea J1446 was even bigger (60 vs. 30%).

DON content = assay: Field trial winter wheat 2017, deoxynivalenol quantification by LC-MS/MS; type: in vivo; conditions: Laacherhof 2017, application at growth stage 63-65, J1446 500 g/ha, prothioconazole 125 g a.i./ha, control 3583 ppb DON content
Procedure: as §1, §2, §3

OC(Cc1ccccc1Cl)(Cn1nc[nH]c1=S)C1(Cl)CC1 (stereo not drawn) [Prothioconazole, prothioconazole]
Visual Assessment Fusarium-Control (Fusarium): 66%
DON Reduction (DON content): 41%
DON Reduction (DON content; listed as prothioconazole): 40% and 41%
